{"source": "patent US11834453B2", "about": "“Substituted pyrimido[5,4-d]pyrimidines as HER2 inhibitors” (Array BioPharma Inc., priority 2020, dated 2023)", "key": {"BCRP [1]": {"molecular_target": "T1, BCRP (Homo sapiens (Human), UniProt Q9UNQ0)", "conditions": "dog, 2 h, 1 μM"}, "[2]": {"molecular_target": "ErbB2 with Exon 20 YVMA insertion (HER2-YVMA) (Homo sapiens (Human), UniProt P04626, INS775YVMA)", "test": "Cellular phosphorylation assay, constitutive ErbB2 phosphorylation (Y1196) in engineered NIH 3T3 cells, Assay 4", "format": "cell-based", "how_it_was_run": "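Engineered NIH 3T3 cells expressing HER2-YVMA treated with compounds 1 h at 37 °C, then formaldehyde-fixed and methanol-permeabilized. pErbB2 Y1196 detected by in-cell infrared immunofluorescence, normalized to GAPDH. IC50 from the normalized curves.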"}, "EGFR": {"molecular_target": "EGFR (Homo sapiens (Human), UniProt P00533)", "sequence (P00533 25-1210)": "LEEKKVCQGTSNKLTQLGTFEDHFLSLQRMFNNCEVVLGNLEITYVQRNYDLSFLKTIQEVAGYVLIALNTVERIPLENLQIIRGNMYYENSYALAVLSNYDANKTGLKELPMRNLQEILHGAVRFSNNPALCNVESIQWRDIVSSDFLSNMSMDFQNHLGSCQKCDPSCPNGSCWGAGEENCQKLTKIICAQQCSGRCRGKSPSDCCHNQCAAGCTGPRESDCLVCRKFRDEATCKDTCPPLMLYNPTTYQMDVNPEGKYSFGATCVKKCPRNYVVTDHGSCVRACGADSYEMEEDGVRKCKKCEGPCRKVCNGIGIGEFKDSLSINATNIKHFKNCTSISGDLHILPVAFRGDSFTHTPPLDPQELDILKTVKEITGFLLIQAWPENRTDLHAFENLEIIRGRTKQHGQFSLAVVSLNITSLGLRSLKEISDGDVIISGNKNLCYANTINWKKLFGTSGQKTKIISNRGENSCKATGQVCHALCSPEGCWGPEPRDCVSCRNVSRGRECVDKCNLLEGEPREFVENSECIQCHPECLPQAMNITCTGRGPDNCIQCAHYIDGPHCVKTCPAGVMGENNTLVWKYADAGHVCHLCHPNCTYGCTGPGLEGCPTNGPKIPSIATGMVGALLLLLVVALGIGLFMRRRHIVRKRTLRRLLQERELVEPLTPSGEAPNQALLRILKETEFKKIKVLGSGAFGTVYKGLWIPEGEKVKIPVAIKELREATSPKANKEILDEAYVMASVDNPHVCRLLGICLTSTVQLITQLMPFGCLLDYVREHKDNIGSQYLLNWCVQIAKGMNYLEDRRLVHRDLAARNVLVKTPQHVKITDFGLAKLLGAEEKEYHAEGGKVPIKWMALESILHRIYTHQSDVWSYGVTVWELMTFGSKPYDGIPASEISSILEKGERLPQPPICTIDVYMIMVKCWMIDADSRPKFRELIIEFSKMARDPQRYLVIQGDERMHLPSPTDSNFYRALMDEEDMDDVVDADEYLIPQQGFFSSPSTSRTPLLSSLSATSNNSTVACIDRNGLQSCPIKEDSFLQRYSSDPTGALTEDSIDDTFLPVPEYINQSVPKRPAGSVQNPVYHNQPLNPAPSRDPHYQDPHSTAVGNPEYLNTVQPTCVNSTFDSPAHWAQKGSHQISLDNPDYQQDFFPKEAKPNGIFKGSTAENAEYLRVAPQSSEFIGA", "test": "ErbB enzyme assay (CisBio HTRF KinEASE-TK), Assay 3", "format": "biochemical", "how_it_was_run": "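Inhibition is measured as reduced peptide phosphorylation by HTRF KinEASE-TK at 1 mM ATP and 250 nM substrate, 30 min at 22 °C. Values are IC50s from a 4-parameter logistic fit.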"}, "EGFR wild type (EGFR WT)": {"molecular_target": "EGFR wild type (EGFR WT) (Homo sapiens (Human), UniProt P00533)", "sequence (P00533 25-1210)": "as above", "test": "Cellular phosphorylation assay, EGF-stimulated EGFR phosphorylation in engineered NIH 3T3 cells, Phospho-EGFR DuoSet IC ELISA, Assay 5", "format": "cell-based", "how_it_was_run": "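NIH 3T3 cells expressing EGFR WT (20,000/well, attached overnight) were exposed to serially diluted compound for 1 h at 37 °C, then stimulated with 100 ng/ml rEGF for 10 min. Phospho-EGFR in lysates measured by sandwich ELISA optical density; IC50 from curves.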"}, "MDR1 (P-gp) [3]": {"molecular_target": "T2, MDR1 (P-gp) (Homo sapiens (Human), UniProt P08183)", "T2 sequence (P08183 whole entry)": "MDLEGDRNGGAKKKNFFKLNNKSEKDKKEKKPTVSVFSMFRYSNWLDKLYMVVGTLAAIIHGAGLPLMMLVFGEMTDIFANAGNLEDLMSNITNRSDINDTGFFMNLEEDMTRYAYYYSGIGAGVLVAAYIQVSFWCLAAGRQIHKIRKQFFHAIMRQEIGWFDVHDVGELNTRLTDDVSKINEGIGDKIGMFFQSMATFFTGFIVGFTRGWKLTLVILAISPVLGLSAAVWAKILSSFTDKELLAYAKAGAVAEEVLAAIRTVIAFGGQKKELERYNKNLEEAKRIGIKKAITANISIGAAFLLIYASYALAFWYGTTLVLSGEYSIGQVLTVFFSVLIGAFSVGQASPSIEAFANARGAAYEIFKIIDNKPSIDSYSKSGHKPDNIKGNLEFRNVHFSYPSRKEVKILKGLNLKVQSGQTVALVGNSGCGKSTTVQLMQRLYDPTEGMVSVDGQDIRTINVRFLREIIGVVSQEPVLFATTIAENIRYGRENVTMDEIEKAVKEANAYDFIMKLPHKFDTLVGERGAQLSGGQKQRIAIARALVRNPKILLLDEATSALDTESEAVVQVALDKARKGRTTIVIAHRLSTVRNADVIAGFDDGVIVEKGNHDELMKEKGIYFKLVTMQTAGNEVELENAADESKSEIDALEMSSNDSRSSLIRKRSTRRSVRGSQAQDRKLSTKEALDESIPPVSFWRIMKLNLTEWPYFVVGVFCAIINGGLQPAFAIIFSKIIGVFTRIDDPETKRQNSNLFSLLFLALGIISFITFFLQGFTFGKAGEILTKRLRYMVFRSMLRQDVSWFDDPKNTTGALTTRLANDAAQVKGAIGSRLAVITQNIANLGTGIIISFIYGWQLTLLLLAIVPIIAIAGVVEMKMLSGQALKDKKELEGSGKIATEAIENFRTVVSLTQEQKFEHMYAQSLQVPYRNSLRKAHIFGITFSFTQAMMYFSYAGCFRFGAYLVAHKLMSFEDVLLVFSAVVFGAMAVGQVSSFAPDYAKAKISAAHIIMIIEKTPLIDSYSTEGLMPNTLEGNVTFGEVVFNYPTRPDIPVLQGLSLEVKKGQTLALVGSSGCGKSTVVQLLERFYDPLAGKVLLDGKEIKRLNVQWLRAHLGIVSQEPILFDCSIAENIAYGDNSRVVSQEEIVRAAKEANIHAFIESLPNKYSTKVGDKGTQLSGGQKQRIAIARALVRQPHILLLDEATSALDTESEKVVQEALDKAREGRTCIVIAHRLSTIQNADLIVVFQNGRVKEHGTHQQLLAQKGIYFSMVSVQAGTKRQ", "conditions": "dog, MDCK-MDR1, 2 h, 1 μM"}, "[4]": {"molecular_target": "ErbB2 insYVMA (HER2-YVMA, SEQ ID NO: 2) (Homo sapiens, UniProt P04626, INS775YVMA/P1170A)", "sequence (P04626 with tags, fused parts or gaps INS775YVMA/P1170A limits assumed)": "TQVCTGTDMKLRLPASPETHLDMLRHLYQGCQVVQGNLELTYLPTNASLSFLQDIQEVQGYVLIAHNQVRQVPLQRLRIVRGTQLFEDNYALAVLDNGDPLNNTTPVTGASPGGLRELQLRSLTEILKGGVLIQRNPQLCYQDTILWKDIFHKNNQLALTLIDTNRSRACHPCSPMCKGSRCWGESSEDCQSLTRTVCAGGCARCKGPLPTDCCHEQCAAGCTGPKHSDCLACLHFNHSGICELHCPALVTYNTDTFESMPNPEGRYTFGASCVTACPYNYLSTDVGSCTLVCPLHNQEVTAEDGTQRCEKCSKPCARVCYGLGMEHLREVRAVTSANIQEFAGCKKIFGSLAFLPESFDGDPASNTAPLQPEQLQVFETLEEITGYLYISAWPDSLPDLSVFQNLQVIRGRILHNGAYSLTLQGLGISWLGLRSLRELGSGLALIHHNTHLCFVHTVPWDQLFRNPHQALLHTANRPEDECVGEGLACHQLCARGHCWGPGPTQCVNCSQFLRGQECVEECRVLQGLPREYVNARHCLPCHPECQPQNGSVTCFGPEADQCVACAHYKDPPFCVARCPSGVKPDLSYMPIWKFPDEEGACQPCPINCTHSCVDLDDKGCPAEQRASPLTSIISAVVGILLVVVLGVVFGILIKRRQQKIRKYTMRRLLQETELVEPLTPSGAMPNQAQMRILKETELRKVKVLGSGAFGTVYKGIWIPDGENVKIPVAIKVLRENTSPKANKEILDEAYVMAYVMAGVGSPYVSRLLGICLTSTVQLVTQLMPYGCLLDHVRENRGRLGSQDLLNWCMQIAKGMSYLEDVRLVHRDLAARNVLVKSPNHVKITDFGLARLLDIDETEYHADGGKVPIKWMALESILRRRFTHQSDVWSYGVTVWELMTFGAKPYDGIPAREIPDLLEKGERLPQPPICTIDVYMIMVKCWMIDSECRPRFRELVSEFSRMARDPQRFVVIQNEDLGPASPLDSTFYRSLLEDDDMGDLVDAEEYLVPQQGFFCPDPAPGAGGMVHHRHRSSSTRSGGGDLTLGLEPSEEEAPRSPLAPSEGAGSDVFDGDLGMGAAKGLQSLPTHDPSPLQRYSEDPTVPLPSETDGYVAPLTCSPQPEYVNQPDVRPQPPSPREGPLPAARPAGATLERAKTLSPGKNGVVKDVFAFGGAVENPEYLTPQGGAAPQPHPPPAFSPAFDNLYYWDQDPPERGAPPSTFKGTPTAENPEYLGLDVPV", "test": "biochemical", "conditions": "ErbB2 insYVMA enzyme assay"}, "ErbB2 WT": {"molecular_target": "ErbB2 WT (Homo sapiens (Human), UniProt P04626)", "test": "ErbB enzyme assay (CisBio HTRF KinEASE-TK), Assay 2", "format": "biochemical", "how_it_was_run": "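ErbB2 phosphorylates 250 nM biotin-TK substrate at 1 mM ATP in 25 mM HEPES pH 7.4, 10 mM MgCl2, 0.01% Triton X-100 and 2% DMSO, for 30 min at 22 °C. Product is detected by HTRF with Sa-XL665 and TK-Ab-Cryptate. Percent of control is set by DMSO-only wells and pre-quenched wells.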"}, "MDR1 (P-gp) [5]": {"molecular_target": "T2, MDR1 (P-gp)", "conditions": "pig, LLC-PK1, 2 h, 1 μM"}, "MDR1 (P-gp) [6]": {"molecular_target": "T2, MDR1 (P-gp)", "test": "MDR1 transfected LLC-PK1 permeability/efflux, Assay 6", "conditions": "pig, LLC-PK1, Assay 6 Pe Ratio, efflux ratio Papp(B-A)/Papp(A-B), MDR1 transfected LLC-PK1"}, "BCRP [7]": {"molecular_target": "T1, BCRP", "test": "BCRP transfected MDCKII permeability/efflux, Assay 8", "format": "in vitro ADME", "conditions": "dog, efflux ratio Papp(B-A)/Papp(A-B), read-out: Assay 8 Pe Ratio", "description": "BCRP transfected MDCKII cells (Assay 8) and BCRP transfected MDCKII canine Mdr1 knockout cells (Assay 9) were cultured and plated according to manufacturer's recommendations.\nBoth positive and negative controls were used to assess functionality of P-gp or BCRP efflux in the assays. Stock solutions for assay controls and the test article were prepared in DMSO for final test concentration of 1 μM. Final organic concentration in the assay was 1%. All dosing solutions contained 10 μM lucifer yellow to monitor MDCKII cell monolayer integrity.\nFor the apical to basolateral determination (A to B), 75 μL of the test article in transport buffer were added to the apical side of the individual transwells and 250 μL of basolateral media, without compound or lucifer yellow, were added to each well. For the basolateral to apical determination (B to A), 250 μL of test article in transport buffer were added to each well and 75 μL transport buffer, without compound or lucifer yellow, were added to each transwell. All tests were performed in triplicate, and each compound was tested for both apical to basolateral and basolateral to apical transport. The plates were incubated for 2 hours on a Lab-Line Instruments Titer Orbital Shaker (VWR, West Chester, PA) at 50 rpm and 37° C. with 5% CO2. All culture plates were removed from the incubator, 50 μL of media were removed from the apical and basolateral portion of each well, and added to 150 μL of 1 μM labetalol in 2:1 acetonitrile (ACN): H2O, v/v.\nThe plates were read using a Molecular Devices (Sunnyvale, CA) Gemini Fluorometer to evaluate the lucifer yellow concentrations at excitation/emission wavelengths of 425/535 nm. […] The plates were sealed, and the contents of each well analyzed by LC MS/MS. The compound concentrations were determined from the ratio of the peak areas of the compound to the internal standard (labetalol) in comparison to the dosing solution.\nA MDS Sciex API 4000 (Applied Biosystems, Foster City, CA) mass spectrometer was used for detection of the analytes in the ion spray positive mode. Analyte responses were measured by multiple reaction monitoring (“MRM”) of transitions unique to each compound (the protonated precursor ion and selected product ions for each test article and m/z 329 to m/z 162 for labetalol, the internal standard.\nThe total run time, including re-equilibration, for a single injection was 1.2 minutes. […] The total run time, including re-equilibration, for a single injection was 0.61 minutes.\nAn efflux ratio is calculated from the mean apical to basolateral (A-B) Papp data and basolateral to apical (B-A) Papp data: Efflux ratio=Papp(B−A)/Papp(A−B)"}}, "note": "Like-named read-outs stand apart in the source and are kept apart here."}
{"molecule": "Cc1cc(Nc2ncnc3cnc(N4[C@H]5CC[C@@H]4[C@H](O)C5)nc23)ccc1Oc1ccc2c(c1)ncn2C", "note": "(racemic) [Example 104, ±(1R,2R,4S)-7-(8-((3-methyl-4-((1-methyl-1H-benzo[d]imidazol-5-yl)oxy)phenyl)amino)pyrimido[5,4-d]pyrimidin-2-yl)-7-azabicyclo[2.2.1]heptan-2-ol]", "values": [{"measurement": "Assay 9 Pe Ratio", "setting": "BCRP [1]", "value": 16.0}, {"measurement": "IC50", "setting": "[2]", "value": 0.0318, "unit": "µM"}, {"measurement": "IC50", "setting": "EGFR", "value": 4.68, "unit": "µM"}, {"measurement": "IC50", "setting": "EGFR wild type (EGFR WT)", "value": 5, "unit": "µM"}, {"measurement": "Assay 7 Pe Ratio", "setting": "MDR1 (P-gp) [3]", "value": 1.4}, {"measurement": "IC50", "setting": "[4]; read-out: Assay 1 IC50", "value": 18.6, "unit": "nM"}, {"measurement": "IC50", "setting": "ErbB2 WT", "value": 0.0182, "unit": "µM"}]}
{"molecule": "Cc1cc(Nc2ncnc3cnc(N4[C@H]5CC[C@@H]4[C@@H](O)C5)nc23)ccc1Oc1ccc2c(c1)ncn2C", "note": "(racemic) [Example 105, ±(1R,2S,4S)-7-(8-((3-methyl-4-((1-methyl-1H-benzo[d]imidazol-5-yl)oxy)phenyl)amino)pyrimido[5,4-d]pyrimidin-2-yl)-7-azabicyclo[2.2.1]heptan-2-ol]", "values": [{"measurement": "Assay 9 Pe Ratio", "setting": "BCRP [1]", "value": 8.6}, {"measurement": "IC50", "setting": "[2]", "value": 0.039, "unit": "µM"}, {"measurement": "IC50", "setting": "EGFR", "value": 10, "unit": "µM"}, {"measurement": "IC50", "setting": "EGFR wild type (EGFR WT)", "value": 5, "unit": "µM"}, {"measurement": "Assay 7 Pe Ratio", "setting": "MDR1 (P-gp) [3]", "value": 2.0}, {"measurement": "IC50", "setting": "[4]; read-out: Assay 1 IC50", "value": 56.7, "unit": "nM"}, {"measurement": "IC50", "setting": "ErbB2 WT", "value": 0.0485, "unit": "µM"}]}
{"molecule": "Cc1cc(Nc2ncnc3cnc(N4CCC45CCOC5)nc23)ccc1Oc1ccc2c(c1)ncn2C", "note": "(racemic) [Example 111, rac-(R)—N-(3-methyl-4-((1-methyl-1H-benzo[c]imidazol-5-yl)oxy)phenyl)-6-(6-oxa-1-azaspiro[3.4]octan-1-yl)pyrimido[5,4-d]pyrimidin-4-amine]", "values": [{"measurement": "Assay 9 Pe Ratio", "setting": "BCRP [1]", "value": 1.6}, {"measurement": "IC50", "setting": "[2]", "value": 0.013, "unit": "µM"}, {"measurement": "IC50", "setting": "EGFR", "value": 3.53, "unit": "µM"}, {"measurement": "IC50", "setting": "EGFR wild type (EGFR WT)", "value": 5, "unit": "µM"}, {"measurement": "Assay 7 Pe Ratio", "setting": "MDR1 (P-gp) [3]", "value": 1.7}, {"measurement": "IC50", "setting": "[4]; read-out: Assay 1 IC50", "value": 28.2, "unit": "nM"}, {"measurement": "IC50", "setting": "ErbB2 WT", "value": 0.024, "unit": "µM"}, {"measurement": "Assay 6 Pe Ratio", "setting": "MDR1 (P-gp) [5]", "value": 1.3}]}
{"molecule": "Cc1cc(Nc2ncnc3cnc(NCC4CC4)nc23)ccc1Oc1ccc2c(c1)ncn2C", "note": "[Example 20, N2-(cyclopropylmethyl)-N8-(3-methyl-4-((1-methyl-1H-benzo[d]imidazol-5-yl)oxy)phenyl)pyrimido[5,4-d]pyrimidine-2,8-diamine]", "values": [{"measurement": "IC50", "setting": "[2]", "value": 0.0448, "unit": "µM"}, {"measurement": "IC50", "setting": "EGFR", "value": "≥ 10", "unit": "µM"}, {"measurement": "IC50", "setting": "EGFR wild type (EGFR WT)", "value": "≥ 5", "unit": "µM"}, {"measurement": "IC50", "setting": "[4]; read-out: Assay 1 IC50", "value": 66.1, "unit": "nM"}, {"measurement": "efflux ratio at 2 h, 1 μM", "setting": "MDR1 (P-gp) [6]", "value": 1.9}, {"measurement": "IC50", "setting": "ErbB2 WT", "value": 0.131, "unit": "µM"}, {"measurement": "efflux ratio at 2 h, 1 μM", "setting": "BCRP [7]", "value": 0.7}]}
{"molecule": "Cc1cc(Nc2ncnc3cnc(N(C)C)nc23)ccc1Oc1ccc2csnc2c1", "note": "[Example 49, N8-(4-(benzo[c]isothiazol-6-yloxy)-3-methylphenyl)-N2,N2-dimethylpyrimido[5,4-d]pyrimidine-2,8-diamine 2,2,2-trifluoroacetate]", "values": [{"measurement": "IC50", "setting": "[2]", "value": 0.132, "unit": "µM"}, {"measurement": "IC50", "setting": "EGFR", "value": 2.25, "unit": "µM"}, {"measurement": "IC50", "setting": "EGFR wild type (EGFR WT)", "value": "≥ 5", "unit": "µM"}, {"measurement": "IC50", "setting": "[4]; read-out: Assay 1 IC50", "value": 55.3, "unit": "nM"}, {"measurement": "efflux ratio at 2 h, 1 μM", "setting": "MDR1 (P-gp) [6]", "value": 1.7}, {"measurement": "IC50", "setting": "ErbB2 WT", "value": 0.241, "unit": "µM"}, {"measurement": "efflux ratio at 2 h, 1 μM", "setting": "BCRP [7]", "value": 5.1}]}
{"molecule": "Cc1cc(Nc2ncnc3cnc(N4CCOCC4)nc23)ccc1Oc1ccc2scnc2c1.O=C(O)C(F)(F)F", "note": "[Example 82, N-(4-(benzo[d]thiazol-5-yloxy)-3-methylphenyl)-6-morpholinopyrimido[5,4-d]pyrimidin-4-amine 2,2,2-trifluoroacetate]", "values": [{"measurement": "IC50", "setting": "[2]", "value": 0.0547, "unit": "µM"}, {"measurement": "IC50", "setting": "EGFR", "value": 1.22, "unit": "µM"}, {"measurement": "IC50", "setting": "EGFR wild type (EGFR WT)", "value": "≥ 5", "unit": "µM"}, {"measurement": "IC50", "setting": "[4]; Assay 1 IC50 (nM)", "value": 47, "unit": "nM"}, {"measurement": "efflux ratio at 2 h, 1 μM", "setting": "MDR1 (P-gp) [6]", "value": 1.3}, {"measurement": "IC50", "setting": "ErbB2 WT", "value": 0.204, "unit": "µM"}, {"measurement": "efflux ratio at 2 h, 1 μM", "setting": "BCRP [7]", "value": 1}]}
{"molecule": "Cc1c(Oc2ccc3c(c2)ncn3C)ccc(Nc2ncnc3cnc(N4CCOCC4)nc23)c1F", "note": "[Example 263]", "values": [{"measurement": "IC50", "setting": "[2]", "value": 0.0161, "unit": "µM"}, {"measurement": "IC50", "setting": "EGFR", "value": "≥ 10", "unit": "µM"}, {"measurement": "IC50", "setting": "EGFR wild type (EGFR WT)", "value": "≥ 5", "unit": "µM"}, {"measurement": "IC50", "setting": "[4]; read-out: Assay 1 IC50", "value": 57.6, "unit": "nM"}, {"measurement": "efflux ratio at 2 h, 1 μM", "setting": "MDR1 (P-gp) [6]", "value": 0.9}, {"measurement": "IC50", "setting": "ErbB2 WT", "value": 0.137, "unit": "µM"}, {"measurement": "efflux ratio at 2 h, 1 μM", "setting": "BCRP [7]", "value": 1.5}]}
{"molecule": "Cc1cc(Nc2ncnc3cnc(NC4(C)CC4)nc23)ccc1Oc1ccc2c(c1)ncn2C", "note": "[Example 268]", "values": [{"measurement": "IC50", "setting": "[2]", "value": 0.039, "unit": "µM"}, {"measurement": "IC50", "setting": "EGFR", "value": "≥ 10", "unit": "µM"}, {"measurement": "IC50", "setting": "EGFR wild type (EGFR WT)", "value": "≥ 5", "unit": "µM"}, {"measurement": "IC50", "setting": "[4]; read-out: Assay 1 IC50", "value": 82, "unit": "nM"}, {"measurement": "efflux ratio at 2 h, 1 μM", "setting": "MDR1 (P-gp) [6]", "value": 1.5}, {"measurement": "IC50", "setting": "ErbB2 WT", "value": 0.0937, "unit": "µM"}, {"measurement": "efflux ratio at 2 h, 1 μM", "setting": "BCRP [7]", "value": 1.1}]}
{"molecule": "Cc1cc(Nc2ncnc3cnc(N(C)C)nc23)ccc1Oc1ccc2scnc2c1", "note": "[Example 271]", "values": [{"measurement": "IC50", "setting": "[2]", "value": 0.0309, "unit": "µM"}, {"measurement": "IC50", "setting": "EGFR", "value": 1.26, "unit": "µM"}, {"measurement": "IC50", "setting": "EGFR wild type (EGFR WT)", "value": 3.08, "unit": "µM"}, {"measurement": "IC50", "setting": "[4]; read-out: Assay 1 IC50", "value": 42.2, "unit": "nM"}, {"measurement": "efflux ratio at 2 h, 1 μM", "setting": "MDR1 (P-gp) [6]", "value": 1.8}, {"measurement": "IC50", "setting": "ErbB2 WT", "value": 0.145, "unit": "µM"}, {"measurement": "efflux ratio at 2 h, 1 μM", "setting": "BCRP [7]", "value": 0.9}]}
